Drawing on patent US7741355B2, “Small-molecule modulators of TRP-p8 activity” (Dendreon Corporation, priority 2006, dated 2010), this text covers EC50 for 20 compounds.

Some results are limits rather than exact numbers.

In the first assay the target is T1, Trp-p8 (Homo sapiens, UniProt Q7Z2W7, T58I).
T1 construct: expressed in transfected cells; host or cells: CHO (Chinese Hamster Ovary) cells
T1 sequence (Q7Z2W7 whole entry T58I): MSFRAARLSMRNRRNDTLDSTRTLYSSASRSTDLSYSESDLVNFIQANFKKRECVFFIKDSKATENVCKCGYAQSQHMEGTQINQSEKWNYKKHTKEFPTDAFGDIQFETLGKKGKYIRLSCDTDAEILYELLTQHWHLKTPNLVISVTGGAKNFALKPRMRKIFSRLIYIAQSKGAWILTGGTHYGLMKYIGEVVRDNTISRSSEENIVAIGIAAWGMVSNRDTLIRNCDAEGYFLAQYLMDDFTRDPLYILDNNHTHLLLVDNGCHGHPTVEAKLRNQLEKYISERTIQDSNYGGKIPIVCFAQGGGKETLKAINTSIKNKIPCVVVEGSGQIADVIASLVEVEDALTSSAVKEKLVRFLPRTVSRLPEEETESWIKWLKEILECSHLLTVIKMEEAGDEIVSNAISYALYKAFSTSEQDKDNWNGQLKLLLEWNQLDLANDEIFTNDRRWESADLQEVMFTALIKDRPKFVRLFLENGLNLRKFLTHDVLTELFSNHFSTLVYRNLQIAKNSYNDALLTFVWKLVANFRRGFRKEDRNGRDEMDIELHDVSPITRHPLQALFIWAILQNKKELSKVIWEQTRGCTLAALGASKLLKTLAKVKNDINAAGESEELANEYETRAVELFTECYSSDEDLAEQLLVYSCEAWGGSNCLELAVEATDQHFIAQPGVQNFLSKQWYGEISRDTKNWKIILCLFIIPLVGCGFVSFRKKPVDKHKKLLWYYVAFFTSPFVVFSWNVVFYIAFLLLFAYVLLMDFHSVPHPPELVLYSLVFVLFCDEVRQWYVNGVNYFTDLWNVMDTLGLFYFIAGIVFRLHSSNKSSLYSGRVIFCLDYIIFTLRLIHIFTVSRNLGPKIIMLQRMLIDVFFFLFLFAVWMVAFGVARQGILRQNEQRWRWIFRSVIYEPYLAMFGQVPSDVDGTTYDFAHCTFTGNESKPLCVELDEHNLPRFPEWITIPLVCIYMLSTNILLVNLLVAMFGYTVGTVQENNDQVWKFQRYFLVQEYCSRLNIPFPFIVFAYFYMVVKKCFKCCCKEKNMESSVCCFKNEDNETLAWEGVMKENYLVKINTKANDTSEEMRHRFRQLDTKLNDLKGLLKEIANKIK
Kind of assay: ATP viability assay with CHO/Trp-p8 cells at 37° C. The settings on record: Table 1, Formula I-A; CHO/Trp-p8 cells, 24-26 hours at 37° C., 50% reduction in relative cell viability; read-out: EC50. Type of assay: cell-based. The text has this: Human Trp-p8 transfected CHO cells (referred to herein as CHO/Trp-p8) were generated for use in experiments of the present invention. Expression of Trp-p8 polypeptide in this transfectant and the absence of any endogenous expression in the non-transfected CHO was confirmed by western blot and immunofluorescence using a Trp-p8 specific antibody (GS2.20) as well as the calcium flux assay with Icilin (1-[2-hydroxyphenyl]-4-[3-nitrophenyl]-1,2,3,6-tetrahydropyrimidine-2-one) and menthol (2-isopropyl-5-methyl-cyclohexanol). Non-transfected CHO cells were used to establish the specificity of the effects of the compounds observed with CHO/Trp-p8.
This Example discloses an ATP viability assay suitable for screening for effective Trp-p8 agonists. The ATP viability assay described herein employs CHO cells expressing an exogenous Trp-p8 cDNA. This example further establishes that Trp-p8 agonists of the present invention are effective in decreasing the viability of Trp-p8 expressing cells.
The concentration of intracellular ATP declines very rapidly when metabolically active cells undergo necrosis and/or apoptosis. The ATP concentration and consequently the relative cell viability can be measured by established methods using commercially available reagents. In the agonist screening methodology disclosed herein, a compound that specifically decreases the viability of CHO/Trp-p8 cells is referred to as an agonist.
As a primary screen for efficacy and specificity for agonists, both the non-transfected CHO and CHO/Trp-p8 cells were exposed to 1 or 10 μM of test compounds in 1% dimethylsulfoxide (DMSO) or 1% DMSO (control) in a 96-well black walled, black-bottomed, cell-culture treated plate. DMSO was the solvent for all of the compounds tested. After 24-26 hours at 37° C., the cells were lysed and ATP concentration determined via a chemiluminescence assay using a commercially available reagent kit—Cell Titer-Glo (Promega; Madison, Wis.). […] (EC50 is defined herein as the agonist concentration at which there is a 50% reduction in relative cell viability).
Broadly, the EC50 is the midpoint of the concentration-response curve. Take `COc1ccc(NC(=O)[C@@H]2C[C@H](C)CC[C@H]2C(C)C)c(NC(=O)[C@@H](N)CO)c1` [Compound 10]: the EC50 lay in the range of 21 to 50 nM.

Regarding `COc1ccc(NC(=O)[C@@H]2C[C@H](C)CC[C@H]2C(C)C)c(NC(=O)[C@@H](C)N)c1` [Compound 1, 2-Isopropyl-5-methyl-cyclohexanecarboxylic acid-[2-(2-aminopropionylamino)-4-methoxylphenyl]amide], the EC50 is < 20 nM.

As to `CSc1ccc(NC(=O)[C@@H]2C[C@H](C)CC[C@H]2C(C)C)c(NCCN)c1` [Compound 4, 2-Isopropyl-5-methyl-cyclohexanecarboxylic acid [2-(2-amino-ethylamino)-4-methylsulfanyl-phenyl]amide], the EC50 was < 20 nM.

On to `COc1ccc(NC(=O)[C@@H]2C[C@H](C)CC[C@H]2C(C)C)c(C(=O)NCCN)c1` [Compound 5], for which the half-maximal effective concentration (EC50) was < 20 nM.

The assay is the same for the next values; noted with them: Table 2, Formula I-B; CHO/Trp-p8 cells, 24-26 hours at 37° C., 50% reduction in relative cell viability; read-out: EC50.
As to `COc1cccc(-c2cc(NC(=O)[C@@H]3C[C@H](C)CC[C@H]3C(C)C)n(CCN)n2)c1` [Compound 24], the EC50 lay in the range of 21 to 50 nM.

Regarding `CC(C)[C@@H]1CC[C@@H](C)C[C@H]1C(=O)Nc1cc(-c2ccccc2)nn1CCCN` [Compound 18], the EC50 was < 20 nM.

As to `CC(C)[C@@H]1CC[C@@H](C)C[C@H]1C(=O)Nc1cc(-c2ccccc2)nn1C[C@H](C)N` [Compound 22], the EC50 was 21 to 50 nM.

In the case of `CNCCn1nc(-c2ccccc2)cc1NC(=O)[C@@H]1C[C@H](C)CC[C@H]1C(C)C` [Compound 21], the EC50 was 21 to 50 nM.

Staying with this assay, now noted: Table 3, Formula I-C; CHO/Trp-p8 cells, 24-26 hours at 37° C., 50% reduction in relative cell viability; read-out: EC50.
For the compound `CC(C)[C@@H]1CC[C@@H](C)C[C@H]1C(=O)NCC(NC(=O)[C@@H](C)N)c1ccccc1` (stereo in doubt) [Compound 28, 2-Isopropyl-5-methyl-cyclohexanecarboxylic acid [2-(2-amino-propionylamino)-2-phenyl-ethyl]-amide], the EC50 was < 20 nM.

As for `CC(C)[C@@H]1CC[C@@H](C)C[C@H]1C(=O)NCC(NCCN)c1ccccc1` (some centres unmarked) [Compound 32], the EC50 was in the range of 51 to 100 nM.

Still in this assay, the particulars now being: Table 5, Formula I-E; CHO/Trp-p8 cells, 24-26 hours at 37° C., 50% reduction in relative cell viability; read-out: EC50.
Turning to `CC(C)[C@@H]1CC[C@@H](C)C[C@H]1C(=O)n1c(=O)n(CCN)c2cc(S(C)(=O)=O)ccc21` [Compound 39], the EC50 was < 20 nM.

`COCCNC(=O)c1ccc2c(c1)n(CCN)c(=O)n2C(=O)[C@@H]1C[C@H](C)CC[C@H]1C(C)C` [Compound 49]: the EC50 is < 20 nM.

As for `CC(C)[C@@H]1CC[C@@H](C)C[C@H]1C(=O)n1c(=O)n(CCN)c2cc(C(=O)NCCc3ccccc3)ccc21` [Compound 71], the EC50 lay within 51 to 100 nM.

For the compound `CCOC(=O)N1CCN(C(=O)c2ccc3c(c2)n(CCN)c(=O)n3C(=O)[C@@H]2C[C@H](C)CC[C@H]2C(C)C)CC1` [Compound 69], the EC50 is 51 to 100 nM.

Turning to `CC(C)[C@@H]1CC[C@@H](C)C[C@H]1C(=O)n1c(=O)n(CCN)c2ncccc21` [Compound 57], the EC50 lay in the range of 21 to 50 nM.

Take `CC(C)[C@@H]1CC[C@@H](C)C[C@H]1C(=O)n1c(=O)n(CCN)c2ccccc21` [Compound 50, 1-(2-Aminoethyl)-3-(2-isopropyl-5-methylcyclohexanecarbonyl)-1,3-dihydro-benzoimidazol-2-one]: the EC50 is < 20 nM.

Turning to `CCN(CC)C(=O)c1ccc2c(c1)n(CCN)c(=O)n2C(=O)[C@@H]1C[C@H](C)CC[C@H]1C(C)C` [Compound 70], the half-maximal effective concentration (EC50) was in the range of 51 to 100 nM.

On to `CC(C)[C@@H]1CC[C@@H](C)C[C@H]1C(=O)n1c(=O)n(CCN)c2cc(OCCO)ccc21` [Compound 40, 3-(2-aminoethyl)-5-(2-hydroxyethoxy)-1-(2-isopropyl-5-methylcyclohexanecarbonyl)-1,3-dihydro-benzoimidazol-2-one], for which the EC50 is < 20 nM.

For `CCNC(=O)c1ccc2c(c1)n(CCN)c(=O)n2C(=O)[C@@H]1C[C@H](C)CC[C@H]1C(C)C` (stereo in doubt) [Compound 47, 3-(2-Amino-ethyl)-1-(2-isopropyl-5-methylcyclohexanecarbonyl)-2-oxo-2,3-dihydro-1H-benzoimidazole-5-carboxylic acid ethyl amide], the EC50 was < 20 nM.

Consider `CC(C)[C@@H]1CC[C@@H](C)C[C@H]1C(=O)n1c(=O)n(CCN)c2cc(C(=O)NCC(N)=O)ccc21` [Compound 73], for which the EC50 lay within 51 to 100 nM.
